# Laboratory results from ChEMBL document CHEMBL4616660, “Phenylpropanoid-Conjugated Triterpenoids from the Leaves of Actinidia arguta and Their Inhibitory Activity on α-Glucosidase” (J Nat Prod, 2020).
# System: Saccharomyces cerevisiae
# Test: Inhibition of Saccharomyces cerevisiae alpha-glucosidase at 100 uM using p-nitrophenyl alpha-Dglucopyranoside as substrate preincubated for 15 mins followed by substrate addition and measured after 20 mins relative to control
row,Compound,inhibition
1,C=C1CC[C@]2(C(=O)O)CC[C@]3(C)C(=CC[C@@H]4[C@@]5(C)C[C@@H](O)[C@H](O)[C@@](C)(COC(=O)/C=C/c6ccc(O)cc6)[C@@H]5CC[C@]43C)[C@@H]2[C@H]1C,59.9%
2,C[C@H]1O[C@H](O[C@H]2[C@H](O)[C@@H](O)[C@@H](O[C@H]3[C@H](O)[C@@H](O)C(O)O[C@@H]3CO)O[C@@H]2CO)[C@H](O)[C@@H](O)[C@@H]1N[C@H]1C=C(CO)[C@@H](O)[C@H](O)[C@H]1O (stereo partly specified),72.8%
3,C[C@H]1[C@H](C)CC[C@]2(C(=O)O)CC[C@]3(C)C(=CC[C@@H]4[C@@]5(C)C[C@@H](O)[C@H](OC(=O)/C=C/c6ccc(O)c(O)c6)[C@@](C)(CO)[C@@H]5CC[C@]43C)[C@H]12,72.8%
4,C[C@H]1[C@H](C)CC[C@]2(C(=O)O)CC[C@]3(C)C(=CC[C@@H]4[C@@]5(C)C[C@@H](O)[C@H](O)[C@@](C)(COC(=O)/C=C\c6ccc(O)cc6)[C@@H]5CC[C@]43C)[C@H]12,59%
5,C[C@H]1[C@H](C)CC[C@]2(C(=O)O)CC[C@]3(C)C(=CC[C@@H]4[C@@]5(C)C[C@@H](OC(=O)/C=C/c6ccc(O)cc6)[C@H](O)[C@@](C)(CO)[C@@H]5CC[C@]43C)[C@H]12,67.2%
6,C[C@H]1[C@H](C)CC[C@]2(C(=O)O)CC[C@]3(C)C(=CC[C@@H]4[C@@]5(C)C[C@@H](O)[C@H](OC(=O)/C=C/c6ccc(O)cc6)[C@@](C)(CO)[C@@H]5CC[C@]43C)[C@H]12,81.3%
7,CO[C@@H]1C(O)=C2[C@@H]3[C@@H](C)[C@H](C)CC[C@]3(C)CC[C@@]2(C)[C@]2(C)CC[C@H]3C(C)(C)[C@@H](O)CC[C@]3(C)[C@@H]12,23.9%
8,C[C@H]1[C@H](C)CC[C@]2(CO)CC[C@]3(C)C(=CC(=O)[C@@H]4[C@@]5(C)CC[C@H](O)C(C)(C)[C@@H]5CC[C@]43C)[C@H]12,34.3%
9,C[C@H]1[C@H](C)CC[C@]2(C(=O)O)CC[C@]3(C)C(=CC[C@@H]4[C@@]5(C)C[C@@H](O)[C@H](O)[C@@](C)(COC(=O)/C=C/c6ccc(O)cc6)[C@@H]5CC[C@]43C)[C@H]12,67%

# The remaining lines, values ahead:
row,inhibition,Compound
1,41.4%,C=C1CC[C@]2(C(=O)O)CC[C@]3(C)C(=CC[C@@H]4[C@@]5(C)C[C@@H](O)[C@H](OC(=O)/C=C\c6ccc(O)cc6)[C@@](C)(CO)[C@@H]5CC[C@]43C)[C@@H]2[C@H]1C
2,1.7%,C=C1CC[C@]2(C(=O)O)CC[C@]3(C)C(=CC[C@@H]4[C@@]5(C)C[C@@H](O)[C@@H](O)[C@@](C)(CO)[C@@H]5CC[C@]43C)[C@@H]2[C@H]1C
3,38.8%,C=C1CC[C@]2(C(=O)O)CC[C@]3(C)C(=CC[C@@H]4[C@@]5(C)C[C@@H](O)[C@H](O)[C@@](C)(COC(=O)/C=C\c6ccc(O)cc6)[C@@H]5CC[C@]43C)[C@@H]2[C@H]1C
4,13%,C=C1CC[C@]2(C(=O)O)CC[C@]3(C)C(=CC[C@@H]4[C@@]5(C)C[C@@H](O)[C@H](O)[C@@](C)(CO)[C@@H]5CC[C@]43C)[C@@H]2[C@H]1C
5,70.1%,C=C1CC[C@]2(C(=O)O)CC[C@]3(C)C(=CC[C@@H]4[C@@]5(C)C[C@@H](OC(=O)/C=C/c6ccc(O)cc6)[C@H](O)[C@@](C)(CO)[C@@H]5CC[C@]43C)[C@@H]2[C@H]1C
6,65.8%,C=C1CC[C@]2(C(=O)O)CC[C@]3(C)C(=CC[C@@H]4[C@@]5(C)C[C@@H](O)[C@H](OC(=O)/C=C/c6ccc(O)cc6)[C@@](C)(CO)[C@@H]5CC[C@]43C)[C@@H]2[C@H]1C
7,3%,C=C1C=C[C@]2(C(=O)O)CC[C@]3(C)C(=CC[C@@H]4[C@@]5(C)C[C@@H](O)[C@@H](O)[C@@](C)(CO)[C@@H]5CC[C@]43C)[C@@H]2[C@H]1C
